Measured values as given in patent US20090048295A1, “SUBSTITUTED 5,6,7,8-TETRAHYDROQUINOLINE DERIVATIVES, COMPOSITIONS, AND METHODS OF USE THEREOF” (priority 2007, published 2009).

Experiments:
[1] = target: T1, C5a receptor (Homo sapiens, UniProt P21730); assay: [125I]-C5a Radioligand Binding Assay (competition binding, differentiated U937 cells); conditions: [125I]-C5a 0.05 nM, U937 cells, multiple values = duplicate experiments; for inhibition at 1 µM: read-out: [125I]-C5a Binding % Inhibition 1 μM, test compound 1 μM; for inhibition at 10 µM: read-out: [125I]-C5a Binding % Inhibition 10 μM, test compound 10 μM; for [125I]-C5a Binding % Inhibition 1 μM: test compound 1 μM; for [125I]-C5a Binding % Inhibition 10 μM: test compound 10 μM;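 as to all read-outs here: cells preincubated with compound 30 min at room temperature, then 60 min at 4 °C with radioligand, bound counts read by scintillation, nonspecific binding defined with 100 nM C5a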
T1 sequence (P21730 1-350): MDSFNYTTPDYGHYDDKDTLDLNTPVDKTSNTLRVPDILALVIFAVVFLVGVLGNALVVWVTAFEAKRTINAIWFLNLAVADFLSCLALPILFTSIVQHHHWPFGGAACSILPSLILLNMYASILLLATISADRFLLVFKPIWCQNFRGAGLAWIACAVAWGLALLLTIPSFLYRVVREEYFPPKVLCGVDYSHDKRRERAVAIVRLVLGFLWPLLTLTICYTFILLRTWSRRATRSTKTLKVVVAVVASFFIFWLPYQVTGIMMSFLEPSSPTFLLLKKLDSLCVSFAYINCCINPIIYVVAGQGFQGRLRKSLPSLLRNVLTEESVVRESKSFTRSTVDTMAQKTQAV

[2] = target: T1, C5a receptor; assay: Calcium Mobilization Assay (C5a-induced Ca2+ mobilization, FLIPR, differentiated U937 cells); format: cell-based; design: endogenous in cells; host or cells: U937 cells differentiated with dibutyryl cAMP; conditions: […] recombinant human C5a, 20 min pre-incubation, multiple values = duplicate experiments, read-out: C5a Induced Ca Mobil. Average IC50
Protocol: U937 cells (human monocytic cell line) were cultured in RPMI-1640 medium supplemented with 10% fetal bovine serum, 10 mM HEPES, 0.11 g/L pyruvate, 0.29 g/L L-glutamine, 100 IU/mL penicillin G and […] streptomycin. Dibutyryl cAMP (1 mM) was added to induce differentiation 2 or 3 days prior to loading the cells with 4.4 μM Fluo-3AM (Molecular Probes) for 30 min at 37° C. in RPMI medium containing 20 mM HEPES, 0.1% bovine serum albumin (BSA) and 5 mM probenecid. After washing, cells were dissolved at 2×10^6 cells/ml in HBSS buffer (Invitrogen 14190-094) supplemented with 10 mM HEPES, 2.5 mM probenecid and 0.1% BSA (pH=7.4), and sedimented by 1 min centrifugation (1500 rpm) in black 96-well plates (Costar) (200,000 cells/well). A 100× concentration range of test compounds was prepared in DMSO and further diluted in HBSS buffer. U937 cells were pre-incubated with compound for 20 minutes at room temperature (1% DMSO), before recombinant human C5a (Sigma) was added to the cells (1.5 nM). Changes in intracellular free Ca^2+ concentration were measured using the Fluorescent Imaging Plate Reader (FLIPR, Molecular Devices). Fluorescence was recorded every second from 10 seconds before the addition of C5a until 2 min after the addition. The maximal fluorescence obtained during this time frame was used for further calculations.

Row | Structure (SMILES) | inhibition at 1 µM [1] [%] | inhibition at 10 µM [1] [%] | IC50 [2] [nM] | [125I]-C5a Binding % Inhibition 1 μM [1] [%] | [125I]-C5a Binding % Inhibition 10 μM [1] [%]
1 | CCc1cccc(CC)c1-c1cc(OC)c2c(n1)CCCC2Nc1cc(Cl)ccc1C (centres unmarked) [Compound 53] | 85 | 91 | 1490 | – | –
2 | CCc1cccc(CC)c1-c1cc(OC)c2c(n1)CCCC2N(C)C1CCCc2ccccc21 (centres unmarked) [Compound 83] | – | – | 8130 | 51 | 71
3 | CCc1cccc(CC)c1-c1cc(OC)c2c(n1)CCCC2Oc1cc(OC)ccc1C (centres unmarked) [Compound 29] | 88 | 89 | 338 | – | –
4 | CCc1cccc(CC)c1-c1cc(OC)c2c(n1)CCCC2Nc1cc(OC)ccc1Cl (centres unmarked) [Compound 32] | 88 | 91 | 380 | – | –
5 | CCN(c1cccc2ccccc12)C1CCCc2nc(-c3ccccc3C(C)C)cc(OC)c21 (centres unmarked) [Compound 57] | 76 | 89 | 1730 | – | –
6 | CCc1cccc(CC)c1-c1cc(OC)c2c(n1)CCC[C@@H]2N(C)[C@H]1CCCc2ccccc21 [Compound 77] | – | – | 5500 | – | 72
7 | CCc1cccc(CC)c1-c1cc(OC)c2c(n1)CCCC2Nc1cc(-c2ccccc2)ccc1C (centres unmarked) [Compound 66] | 83 | 88 | 2460 | – | –
8 | CCc1cccc(CC)c1-c1cc(OC)c2c(n1)CCCC2N(C)Cc1cccnc1 (centres unmarked) [Compound 125] | -11 | 45 | > 10000 | – | –
9 | CCc1cccc(CC)c1-c1cc(OC)c2c(n1)CCCC2Nc1cccc(OC)c1 (centres unmarked) [Compound 81] | 55 | 71 | 7410 | – | –
10 | CCc1ccccc1NC1CCCc2nc(-c3c(CC)cccc3CC)cc(OC)c21 (centres unmarked) [Compound 41] | 85 | 86 | 732 | – | –
11 | CCc1cccc(CC)c1-c1cc(OC)c2c(n1)CCCC2N1CCc2ccc(C(=O)O)cc2C1 (centres unmarked) [Compound 131] | -26 | -9 | > 10000 | – | –
12 | CCc1cccc(CC)c1-c1cc(OC)c2c(n1)CCCC2Nc1cc(C(F)(F)F)ccc1C (centres unmarked) [Compound 28] | 88 | 92 | 287 | – | –
13 | CCc1cccc(CC)c1-c1cc(OC)c2c(n1)CCCC2N(C)Cc1cccs1 (centres unmarked) [Compound 94] | 56 | 77 | > 10000 | – | –
14 | CCN(c1cccc2ccccc12)C1CCCc2nc(-c3c(C)cc(OC)cc3C)cc(OC)c21 (centres unmarked) [Compound 21] | 91 | 93 | 169 | – | –
15 | CCc1cccc(CC)c1-c1cc(OC)c2c(n1)CCCC2Nc1ccccc1CCO (centres unmarked) [Compound 5] | 92 | 97 | 30 | – | –
16 | CCc1cccc(CC)c1-c1cc(OC)c2c(n1)CCCC2N1CCc2ccc(F)cc2C1 (centres unmarked) [Compound 45] | 74 | 87 | 878 | – | –
17 | CCc1cccc(CC)c1-c1cc(OC)c2c(n1)CCCC2Nc1cc(OC)ccc1OC (centres unmarked) [Compound 34] | 83 | 89 | 417 | – | –
18 | CCc1cccc(CC)c1-c1cc(OC)c2c(n1)CCCC2N1CCc2cccc(C(=O)O)c2C1 (centres unmarked) [Compound 130] | -24 | -13 | > 10000 | – | –
19 | CCc1cccc(CC)c1-c1cc(OC)c2c(n1)CCCC2N1CCc2cccc(C(=O)OC)c2C1 (centres unmarked) [Compound 44] | 77 | 87 | 839 | – | –
20 | CCc1cccc(CC)c1-c1cc(OC)c2c(n1)CCCC2Nc1ccccc1CO (centres unmarked) [Compound 15] | 79 | 90 | 177 | – | –
21 | CCOc1cc(-c2c(CC)cccc2CC)nc2c1C(N(CC)c1cccc3ccccc13)CCC2 (racemic) [Compound 8, (±)-[2-(2,6-Diethyl-Phenyl)-4-ethoxy-5,6,7,8-tetrahydro-quinolin-5-yl]-ethyl-naphthlen-1-yl-amine] | 94 | 96 | 67 | – | –
22 | CCc1cccc(CC)c1-c1cc(OC)c2c(n1)CCCC2N(CC)c1ncnc2ccccc12 (centres unmarked) [Compound 135] | 16 | 47 | > 10000 | – | –
23 | CCc1cccc(CC)c1-c1cc(OC)c2c(n1)CCCC2Nc1ccccc1C#N (centres unmarked) [Compound 74] | 19 | 52 | 4900 | – | –
24 | CCc1cccc(CC)c1-c1cc(OC)c2c(n1)CCCC2N1CCc2cc(C(F)(F)F)ccc2C1 (centres unmarked) [Compound 102] | 74 | 80 | > 10000 | – | –
25 | CCN(c1cccc2ccccc12)C1CCCc2nc(-c3ccccc3C)cc(OC)c21 (centres unmarked) [Compound 30] | 68 | 82 | 354 | – | –
26 | CCc1cccc(CC)c1-c1cc(OC)c2c(n1)CCCC2N1CCc2c(Cl)cccc2C1 (centres unmarked) [Compound 56] | 84 | 85 | 1690 | – | –
27 | CCc1cccc(CC)c1-c1cc(OC)c2c(n1)CCCC2N1CCc2ccc(C(=O)OC)cc2C1 (centres unmarked) [Compound 97] | 47 | 59 | > 10000 | – | –
28 | CCc1cccc(CC)c1-c1cc(OC)c2c(n1)CCCC2N(C)C1CCCCC1 (centres unmarked) [Compound 124] | 2 | 33 | > 10000 | – | –

Second part, the compound after the results:

Row | inhibition at 1 µM [1] [%] | inhibition at 10 µM [1] [%] | IC50 [2] [nM] | [125I]-C5a Binding % Inhibition 1 μM [1] [%] | [125I]-C5a Binding % Inhibition 10 μM [1] [%] | Structure (SMILES)
29 | 75 | 80 | > 10000 | – | – | COc1cc(-c2c(C)cccc2C)nc2c1C(N(C)c1cccc(Cl)c1C)CCC2 (centres unmarked) [Compound 115]
30 | – | – | > 10000 | 33 | 54 | COc1cc(-c2c(C)cccc2C)nc2c1C(N(C)c1cccc3[nH]ccc13)CCC2 (centres unmarked) [Compound 113]
31 | 74 | 86 | 543 | – | – | COc1ccc(C)c(NC2CCCc3nc(-c4c(C)cccc4C)cc(OC)c32)c1 (centres unmarked) [Compound 37]
32 | 66 | 76 | 2570 | – | – | CCc1cccc(CC)c1-c1cc(OC)c2c(n1)CCCC2N(C)c1cc(OC)ccc1OC (centres unmarked) [Compound 68]
33 | 86 | 86 | 1480 | – | – | CCc1cccc(CC)c1-c1cc(OC)c2c(n1)CCCC2N(C)c1c(C)ccc2ccccc12 (centres unmarked) [Compound 52]
34 | 87 | 86 | > 10000 | – | – | COc1ccc2cccc(N(C)C3CCCc4nc(-c5c(C)cccc5C)cc(OC)c43)c2c1 (centres unmarked) [Compound 116]
35 | 83 | 85 | 5130 | – | – | CCN(c1cccc(C)c1C)C1CCCc2nc(-c3c(C)cccc3C)cc(OC)c21 (centres unmarked) [Compound 76]
36 | 88 | 88 | 687 | – | – | CCc1cccc(CC)c1-c1cc(OC)c2c(n1)CCCC2N(C)c1cc(C)ccc1C (centres unmarked) [Compound 40]
37 | 82 | 85 | > 10000 | – | – | COc1cc(-c2c(C)cccc2C)nc2c1C(Oc1cc(C(C)C)ccc1C)CCC2 (centres unmarked) [Compound 111]
38 | 36 | 70 | > 10000 | – | – | COc1cc(-c2c(C)cccc2C)nc2c1C(N(C)c1cccc3c1CCN(C)C3)CCC2 (centres unmarked) [Compound 112]
39 | 74 | 82 | 2350 | – | – | CCc1cccc(CC)c1-c1cc(OC)c2c(n1)CCCC2Nc1ccc(OC)cc1C (centres unmarked) [Compound 63]
40 | 76 | 85 | 3220 | – | – | COc1ccc(C)c(N(C)C2CCCc3nc(-c4c(C)cccc4C)cc(OC)c32)c1 (centres unmarked) [Compound 69]
41 | 83 | 86 | 792 | – | – | CCc1cccc(CC)c1-c1cc(OC)c2c(n1)CCCC2N(C)c1ccccc1C (centres unmarked) [Compound 42]
42 | 86 | 85 | 3790 | – | – | CCc1cccc(CC)c1-c1cc(OC)c2c(n1)CCCC2N(C)c1cccc2c1CCC2 (centres unmarked) [Compound 72]
